Columns and labels:
Experiment in all cases: Cell growth inhibition, CellTiter-Glo, 72 h
Type in all cases: cell-based
[1] = tested on: 22RV1 cells; conditions: 72 h culture, mean of N=2
Description: (§1) 22RV1, vCap, MM1S and OPM-2 cells were cultured in RPMI-1640 medium (10% fetal bovine serum and 100 units of penicillin/streptomycin dual-antibody per mL were added to RPMI-1640) in a cell incubator at 37°C with 5% CO2, respectively. Cells in logarithmic growth phase were seeded into 96-well cell culture plates at 5×10^3 cells/100 µL/well and cultured overnight. Active compounds dissolved in DMSO at different concentrations were added with a final concentration of 0.5% DMSO. 1% Tween 20 was used as positive control and 0.5% DMSO was used as negative control. After 72 h of culture, an equal volume of CellTiter-Glo was added to each well, mixed by shaking for 2 min, and left standing at room temperature for 10 min. […] signal values were read with a microplate reader. Data were analyzed and graphs were generated using Prism 7.0. The values shown are mean ± SEM (N=2). […] The formula for inhibition rate is as follows: % Inhibition = (Icompound−IZPE)/(IHPE−IZPE) × 100 [formula]
(§2) The X-axis is compound concentration (nM), and the Y-axis is % Inhibition.

[2] = tested on: OPM-2 cells; conditions: Homo sapiens, 72 h culture, mean of N=2
Description: as §1, §2

[3] = tested on: MM1S cells; conditions: Homo sapiens, MM1.S, 72 h culture, mean of N=2
Description: as §1, §2

[4] = tested on: vCap cells; conditions: 72 h culture, mean of N=2
Description: as §1, §2

C=C(F)C(=O)N1CCC(c2cc3c(c(N4CCCc5cc(-c6cnn(C)c6)c(C(F)F)cc54)c2)CN(C(C)=O)C3)CC1 [Compound 1365]
IC50 ([1]; Homo sapiens): 3350 nM
IC50 [2]: 30 nM

CC(=O)N1Cc2cc(C3CCN(CC4CCN(CCNc5ccc6c(c5)CN(C5CCC(=O)NC5=O)C6=O)CC4)CC3)cc(N3CCCc4cc(-c5cnn(C)c5)c(C(F)F)cc43)c2C1 (centres unmarked) [Compound 2062]
IC50 ([1]; Homo sapiens): 0.24 nM
IC50 [3]: 0.04 nM
IC50 ([4]; Homo sapiens): 0.06 nM

CNC(=O)N1CCc2cc(C3CCN(CCc4ccc(COc5cccc6c5CN(C5CCC(=O)NC5=O)C6=O)cc4)CC3)cc(N3CCCc4cc(-c5cnn(C)c5)c(C(F)F)cc43)c2C1 (centres unmarked) [Compound 2066, 8-(7-(difluoromethyl)-6-(1-methyl-1H-pyrazol-4-yl)-3,4-dihydroquinolin-1(2H)-yl)-6-(1-(4-(((2-(2,6-dioxopiperidin-3-yl)-1-oxoisoindolin-4-yl)oxy)methyl)phenylethyl)piperidin-4-yl)-N-methyl-3,4-dihydroisoquinoline-2(1H)-carboxamide]
IC50 ([1]; Homo sapiens): 0.08 nM
IC50 [3]: 0.23 nM

CC(=O)N1Cc2cc(C3CCN(CCC4CCN(c5ccc6c(c5)CN(C5CCC(=O)NC5=O)C6=O)CC4)CC3)cc(N3CCCc4cc(-c5cnn(C)c5)c(C(F)F)cc43)c2C1 (centres unmarked) [Compound 2069]
IC50 ([1]; Homo sapiens): 0.38 nM
IC50 [3]: 0.36 nM

CC(=O)n1cc2cc(C3CCN(C(=O)CN4CCC(C#Cc5cccc6c5n(C)c(=O)n6C5CCC(=O)NC5=O)CC4)CC3)cc(N3CCCc4cc(-c5cnn(C)c5)c(C(F)F)cc43)c2c1 (centres unmarked) [Compound 2048, 3-(4-((1-(2-(4-(2-acetyl-7-(7-(difluoromethyl)-6-(1-methyl-1H-pyrazol-4-yl)-3,4-dihydroquinolin-1(2H)-yl)isoindol-5-yl)piperidin-1-yl)-2-oxoethyl)piperidin-4-yl)ethynyl)-3-methyl-2-oxo-2,3-dihydro-1H-benzo[d]imidazol-1-yl)piperidine-2,6-dione]
IC50 ([1]; Homo sapiens): 1.84 nM
IC50 ([4]; Homo sapiens): 1.85 nM

CC(=O)N1Cc2cc(C3CCN(CCN4CCC(CNc5ccc6c(c5)CN(C5CCC(=O)NC5=O)C6=O)CC4)CC3)cc(N3CCCc4cc(-c5cnn(C)c5)c(C(F)F)cc43)c2C1 (centres unmarked) [Compound 2063]
IC50 ([1]; Homo sapiens): 0.33 nM
IC50 [3]: 0.28 nM

CC(=O)N1Cc2cc(C3CCN(CCN4CCC(COc5ccc6c(c5)CN(C5CCC(=O)NC5=O)C6=O)CC4)CC3)cc(N3CCCc4cc(-c5cnn(C)c5)c(C(F)F)cc43)c2C1 (centres unmarked) [Compound 2071]
IC50 ([1]; Homo sapiens): 0.5 nM
IC50 [3]: 0.31 nM

CC(=O)N1Cc2cc(C3CCN(CCN4CCN(c5ccc6c(c5)CN(C5CCC(=O)NC5=O)C6=O)CC4)CC3)cc(N3CCCc4cc(-c5cnn(C)c5)c(C(F)F)cc43)c2C1 (centres unmarked) [Compound 2070]
IC50 ([1]; Homo sapiens): 0.42 nM
IC50 [3]: 0.34 nM

CNC(=O)N1CCc2cc(C3CCN(C(=O)CCCCCCCNc4ccc5c(c4)n(C)c(=O)n5C4CCC(=O)NC4=O)CC3)cc(N3CCCc4cc(-c5cnn(C)c5)c(C(F)F)cc43)c2C1 (centres unmarked) [Compound 2013]
IC50 ([1]; Homo sapiens): 0.01 nM
IC50 ([4]; Homo sapiens): 0.449 nM

CC(=O)n1cc2cc(C3CCN(C(=O)CCCCCCCNc4ccc5c(c4)n(C)c(=O)n5C4CCC(=O)NC4=O)CC3)cc(N3CCCc4cc(-c5cnn(C)c5)c(C(F)F)cc43)c2c1 (centres unmarked) [Compound 2004, 3-[5-[[8-[4-[2-acetyl-7-[7-(difluoromethyl)-6-(1-methylpyrazol-4-yl)-3,4-dihydro-2H-quinolin-1-yl]isoindol-5-yl]piperidin-1-yl]-8-oxooctyl]amino]-3-methyl-2-oxobenzoimidazol-1-yl]piperidine-2,6-dione]
IC50 ([1]; Homo sapiens): 0.03 nM
IC50 ([4]; Homo sapiens): 0.12 nM

CC(=O)N1Cc2cc(C3CCN(C(=O)CCCCC#Cc4ccc5c(c4)n(C)c(=O)n5C4CCC(=O)NC4=O)CC3)cc(N3CCCc4cc(-c5cnn(C)c5)c(C(F)F)cc43)c2C1 (centres unmarked) [Compound 2032, 3-{5-[7-(4-{2-acetyl-7-[7-(difluoromethyl)-6-(1-methylpyrazol-4-yl)-3,4-dihydro-2H-quinolin-1-yl]-1,3-dihydroisoindol-5-yl}piperidin-1-yl)-7-oxohept-1-yn-1-yl]-3-methyl-2-oxo-1,3-benzodiazol-1-yl}piperidine-2,6-dione]
IC50 ([1]; Homo sapiens): 0.16 nM
IC50 ([4]; Homo sapiens): 0.11 nM

CC(=O)N1Cc2cc(C3CCN(CC4CCN(CCCc5cccc6c5C(=O)N(C5CCC(=O)NC5=O)C6=O)CC4)CC3)cc(N3CCCc4cc(-c5cnn(C)c5)c(C(F)F)cc43)c2C1 (centres unmarked) [Compound 2020]
IC50 ([1]; Homo sapiens): 1.87 nM
IC50 ([4]; Homo sapiens): 0.53 nM

CNC(=O)N1CCc2cc(C3CCN(C(=O)CCCCCCNc4cccc5c4n(C)c(=O)n5C4CCC(=O)NC4=O)CC3)cc(N3CCCc4cc(-c5cnn(C)c5)c(C(F)F)cc43)c2C1 (centres unmarked) [Compound 2016, 8-[7-(difluoromethyl)-6-(1-methylpyrazol-4-yl)-3,4-dihydro-2H-quinolin-1-yl)-6-[1-[7-[[1-(2,6-dioxo-3-piperidinyl)-3-methyl-2-oxobenzoimidazol-4-yl]amino]heptanoyl]-4-piperidinyl]-N-methyl-3,4-dihydro-1H-isoquinoline-2-carboxamide]
IC50 ([1]; Homo sapiens): 0.01 nM
IC50 ([4]; Homo sapiens): < 0.005 nM

CNC(=O)N1CCc2cc(C3CCN(CCN4CCOC(CNc5cccc6c5C(=O)N(C5CCC(=O)NC5=O)C6=O)C4)CC3)cc(N3CCCc4cc(-c5cnn(C)c5)c(C(F)F)cc43)c2C1 (centres unmarked) [Compound 2010]
IC50 ([1]; Homo sapiens): 0.08 nM
IC50 ([4]; Homo sapiens): 0.193 nM

CNC(=O)N1CCc2cc(C3CCN(Cc4ccc(CCOc5cccc6c5CN(C5CCC(=O)NC5=O)C6=O)cc4)CC3)cc(N3CCCc4cc(-c5cnn(C)c5)c(C(F)F)cc43)c2C1 (centres unmarked) [Compound 2012]
IC50 ([1]; Homo sapiens): 0.62 nM
IC50 ([4]; Homo sapiens): 2.31 nM

CC(=O)N1Cc2cc(C3CCOCC3)cc(-c3cccc4cc(-c5ccc(C(=O)N6CCC(Nc7cccc8c7C(=O)N(C7CCC(=O)NC7=O)C8=O)CC6)nc5)ncc34)c2C1 (centres unmarked) [Compound 2074, 4-((1-(5-(8-(2-acetyl-6-(tetrahydro-2H-pyran-4-yl)isoindolin-4-yl)isoquinolin-3-yl)pyridinecarbonyl)piperidin-4-yl)amino)-2-(2,6-dioxopiperidin-3-yl)isoindoline-1,3-dione]
IC50 ([1]; Homo sapiens): > 10000 nM
IC50 [3]: 426 nM

CC(=O)N1Cc2cc(C3CCN(CCN4CCC(COc5cccc6c5CN(C5CCC(=O)NC5=O)C6=O)CC4)CC3)cc(N3CCCc4cc(-c5cnn(C)c5)c(C(F)F)cc43)c2C1 (centres unmarked) [Compound 2055]
IC50 ([1]; Homo sapiens): 0.54 nM
IC50 ([4]; Homo sapiens): 0.26 nM

CC(=O)N1Cc2cc(C3CCN(C(=O)CCCCCCNc4ccc5c(c4)n(C)c(=O)n5C4CCC(=O)NC4=O)CC3)cc(N3CCCc4cc(-c5cnn(C)c5)c(C(F)F)cc43)c2C1 (centres unmarked) [Compound 2027]
IC50 ([1]; Homo sapiens): 0.04 nM
IC50 ([4]; Homo sapiens): 0.01 nM

CNC(=O)N1CCc2cc(C3CCN(CC4CCN(CCCc5cccc6c5C(=O)N(C5CCC(=O)NC5=O)C6=O)CC4)CC3)cc(N3CCCc4cc(-c5cnn(C)c5)c(C(F)F)cc43)c2C1 (centres unmarked) [Compound 2022]
IC50 ([1]; Homo sapiens): 0.3 nM
IC50 ([4]; Homo sapiens): 2.12 nM

3-{5-[8-(4-{2-acetyl-7-[7-(difluoromethyl)-6-(1-methylpyrazol-4-yl)-3,4-dihydro-2H-quinolin-1-yl]-1,3-dihydroisoindol-5-yl}piperidin-1-yl)-8-oxo-1-yn-1-yl]-3-methyl-2-oxo-1,3-benzodiazol-1-yl}piperidine-2,6-dione [Compound 2030]
IC50 [1]: 0.34 nM
IC50 [4]: 0.1 nM

CC(=O)N1Cc2cc(C3CCN(Cc4ccc(COc5cccc6c5CN(C5CCC(=O)N(COC(=O)CN)C5=O)C6=O)cc4)CC3)cc(N3CCCc4cc(-c5cnn(C)c5)c(C(F)F)cc43)c2C1 (centres unmarked) [Compound 2064, (3-(4-((4-((2-acetyl-7-(7-(difluoromethyl)-6-(1-methyl-1H-pyrazol-4-yl)-3,4-dihydroquinolin-1(2H)-yl)isoindol-5-yl)piperidin-1-yl)methyl)benzyl)oxy)-1-oxoisoindolin-2-yl)-2,6-dioxopiperidin-1-yl)methyl glycinate]
IC50 ([1]; Homo sapiens): 0.23 nM
IC50 ([4]; Homo sapiens): 0.35 nM

CC(=O)N1Cc2cc(C3CCN(C(=O)CCCCCCNc4cccc5c4n(C)c(=O)n5C4CCC(=O)NC4=O)CC3)cc(N3CCCc4cc(-c5cnn(C)c5)c(C(F)F)cc43)c2C1 (centres unmarked) [Compound 2007]
IC50 ([1]; Homo sapiens): 0.04 nM
IC50 ([4]; Homo sapiens): 0.01 nM

CC(=O)N1Cc2cc(C3CCN(CCN4CCC(CNc5cccc6c5C(=O)N(C5CCC(=O)NC5=O)C6=O)CC4)CC3)cc(N3CCCc4cc(-c5cnn(C)c5)c(C(F)F)cc43)c2C1 (centres unmarked) [Compound 2019]
IC50 ([1]; Homo sapiens): 2.43 nM
IC50 ([4]; Homo sapiens): 1.25 nM

CC(=O)N1Cc2cc(C3CCN(CC4CCN(CCOc5cccc6c5CN(C5CCC(=O)NC5=O)C6=O)CC4)CC3)cc(N3CCCc4cc(-c5cnn(C)c5)c(C(F)F)cc43)c2C1 (centres unmarked) [Compound 2054]
IC50 ([1]; Homo sapiens): 0.84 nM
IC50 [3]: 0.33 nM
IC50 ([4]; Homo sapiens): 0.26 nM

CNC(=O)N1CCc2cc(C3CCN(CC4CCN(CCOc5cccc6c5CN(C5CCC(=O)NC5=O)C6=O)CC4)CC3)cc(N3CCCc4cc(-c5cnn(C)c5)c(C(F)F)cc43)c2C1 (centres unmarked) [Compound 2065]
IC50 ([1]; Homo sapiens): 0.41 nM
IC50 [3]: 0.28 nM

CC(=O)N1Cc2cc(C3CCC(N4C(=O)C=CC4=O)CC3)cc(N3CCCc4cc(-c5cnn(C)c5)c(C(F)F)cc43)c2C1 (centres unmarked) [Compound 1385, 1-(4-{2-acetyl-7-[7-(difluoromethyl)-6-(1-methylpyrazol-4-yl)-3,4-dihydro-2H-quinolin-1-yl]-1,3-dihydroisoindol-5-yl}cyclohexyl)pyrrole-2,5-dione]
IC50 ([1]; Homo sapiens): 358 nM
IC50 ([4]; Homo sapiens): 144 nM

CC(=O)N1Cc2cc(C3CCN(CCc4ccc(COc5cccc6c5CN(C5CCC(=O)NC5=O)C6=O)cc4)CC3)cc(N3CCCc4cc(-c5cnn(C)c5)c(C(F)F)cc43)c2C1 (centres unmarked) [Compound 2031]
IC50 ([1]; Homo sapiens): 0.04 nM
IC50 ([4]; Homo sapiens): 0.21 nM

Reference: patent publication EP4813980A1, “EP300/CBP REGULATOR, AND PREPARATION METHOD THEREFOR AND USE THEREOF” (Miracure Biotechnology Limited, priority 2023, dated 2025)
